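1) Cells in 96-well plates. 2) Compound, 48 h, 5 concentrations. 3) Linear interpolation between surrounding doses. 4) Unreached endpoint = highest concentration. Abbreviation: GI50, concentration required for 50% inhibition of growth.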 Activity calls are given as the source filed them. Cut-off read from the data, not from the text of the source: active = GI50 up to about 1.1 µM and inactive = higher.
Key:
Experiment in all cases: DTP human tumour cell line panel, 48 h
786-0 = system: 786-0
A498 = system: A498
A549 = system: A549
ACHN = system: ACHN
CAKI-1 = system: CAKI-1
CCRF-CEM = system: CCRF-CEM
COLO 205 = system: COLO 205
DU-145 = system: DU-145
EKVX = system: EKVX
HCC 2998 = system: HCC 2998
HCT-116 = system: HCT-116
HCT-15 = system: HCT-15
HL-60 = system: HL-60
HOP-62 = system: HOP-62
HOP-92 = system: HOP-92
Hs-578T = system: Hs-578T
IGROV-1 = system: IGROV-1
K562 = system: K562
KM12 = system: KM12
LOX IMVI = system: LOX IMVI
M14 = system: M14
MCF7 = system: MCF7
MDA-MB-231 = system: MDA-MB-231
MDA-MB-435 = system: MDA-MB-435
MDA-N = system: MDA-N
MOLT-4 = system: MOLT-4
Malme-3M = system: Malme-3M
NCI-H23 = system: NCI-H23
NCI-H460 = system: NCI-H460
NCI-H522 = system: NCI-H522
OVCAR-3 = system: OVCAR-3
OVCAR-4 = system: OVCAR-4
OVCAR-5 = system: OVCAR-5
PC-3 = system: PC-3
RPMI-8226 = system: RPMI-8226
RXF 393 = system: RXF 393
SF-268 = system: SF-268
SF-295 = system: SF-295
SF-539 = system: SF-539
SK-MEL-28 = system: SK-MEL-28
SK-MEL-2 = system: SK-MEL-2
SK-MEL-5 = system: SK-MEL-5
SK-OV-3 = system: SK-OV-3
SN12C = system: SN12C
SNB-19 = system: SNB-19
SNB-75 = system: SNB-75
SR = system: SR
SW-620 = system: SW-620
T47D = system: T47D
TK-10 = system: TK-10
U-251 = system: U-251
UACC-257 = system: UACC-257
UACC-62 = system: UACC-62
UO-31 = system: UO-31
NCI/ADR-RES = system: NCI/ADR-RES
OVCAR-8 = system: OVCAR-8
HT-29 = system: HT-29
NCI-H226 = system: NCI-H226

With `NS(=O)(=O)c1ccc(NC(=S)NC=C2C(=O)c3ccccc3C2=O)cc1` the GI50 (786-0) was > 100 µM (inactive), the GI50 (A498) was 71.9 µM (inactive) and the GI50 (A549) was > 100 µM (inactive). The GI50 (ACHN) was > 100 µM (inactive), the GI50 (CAKI-1) was 86.5 µM (inactive) and the GI50 (CCRF-CEM) was > 100 µM (inactive). The GI50 (COLO 205) was > 100 µM (inactive), the GI50 (DU-145) was 94 µM (inactive) and the GI50 (EKVX) was > 100 µM (inactive). The GI50 (HCC 2998) was 38.3 µM (inactive), the GI50 (HCT-116) was > 100 µM (inactive) and the GI50 (HCT-15) was 38.9 µM. For the same molecule, the GI50 (HL-60) was > 100 µM (inactive), the GI50 (HOP-62) was > 100 µM (inactive) and the GI50 (HOP-92) was 23.7 µM (inactive). The GI50 (Hs-578T) was 14.4 µM (inactive), the GI50 (IGROV-1) was 23.3 µM (inactive) and the GI50 (K562) was 35.8 µM (inactive). The GI50 (KM12) was > 100 µM (inactive), the GI50 (LOX IMVI) was > 100 µM (inactive) and the GI50 (M14) was > 100 µM (inactive). For the same molecule, the GI50 (MCF7) was 17.9 µM (inactive), the GI50 (MDA-MB-231) was 23.7 µM (inactive) and the GI50 (MDA-MB-435) was 91.4 µM (inactive). The GI50 (MDA-N) was > 100 µM (inactive), the GI50 (MOLT-4) was 61.9 µM (inactive) and the GI50 (Malme-3M) was > 100 µM (inactive). The GI50 (NCI-H23) was > 100 µM (inactive), the GI50 (NCI-H460) was > 100 µM (inactive) and the GI50 (NCI-H522) was 65.9 µM (inactive). The GI50 (OVCAR-3) was 55.8 µM (inactive), the GI50 (OVCAR-4) was 49 µM (inactive) and the GI50 (OVCAR-5) was > 100 µM (inactive). For the same molecule, the GI50 (PC-3) was > 100 µM (inactive), the GI50 (RPMI-8226) was 36.4 µM (inactive) and the GI50 (RXF 393) was 43.6 µM (inactive). For the same molecule, the GI50 (SF-268) was 36.5 µM (inactive), the GI50 (SF-295) was > 100 µM (inactive) and the GI50 (SF-539) was 35.5 µM (inactive). For the same molecule, the GI50 (SK-MEL-28) was > 100 µM (inactive), the GI50 (SK-MEL-2) was 62.1 µM (inactive) and the GI50 (SK-MEL-5) was 47 µM (inactive). The GI50 (SK-OV-3) was > 100 µM (inactive), the GI50 (SN12C) was > 100 µM (inactive) and the GI50 (SNB-19) was > 100 µM (inactive). The GI50 (SNB-75) was 19.4 µM (inactive), the GI50 (SR) was 42 µM (inactive) and the GI50 (SW-620) was > 100 µM (inactive). For the same molecule, the GI50 (T47D) was 30.8 µM (inactive), the GI50 (TK-10) was 46.6 µM (inactive) and the GI50 (U-251) was 76.2 µM (inactive). For the same molecule, the GI50 (UACC-257) was > 100 µM (inactive), the GI50 (UACC-62) was 56.2 µM (inactive) and the GI50 (UO-31) was 22.6 µM (inactive).

With `Cc1ccc(-c2nnc(CCCCCCCCc3nnc(-c4ccc(C)cc4O)n3N)n2N)c(O)c1` the GI50 (786-0) was 85.1 µM (inactive), the GI50 (A498) was > 100 µM (inactive) and the GI50 (A549) was > 100 µM (inactive). For the same molecule, the GI50 (ACHN) was > 100 µM (inactive), the GI50 (CAKI-1) was > 100 µM (inactive) and the GI50 (CCRF-CEM) was > 10 µM (inactive). The GI50 (COLO 205) was > 100 µM (inactive), the GI50 (DU-145) was > 100 µM (inactive) and the GI50 (EKVX) was > 100 µM (inactive). For the same molecule, the GI50 (HCC 2998) was > 100 µM (inactive), the GI50 (HCT-116) was > 100 µM (inactive) and the GI50 (HCT-15) was greater than 100 µM. For the same molecule, the GI50 (HL-60) was > 10 µM (inactive), the GI50 (HOP-92) was 9.71 µM (inactive) and the GI50 (Hs-578T) was 44.9 µM (inactive). The GI50 (IGROV-1) was > 100 µM (inactive), the GI50 (KM12) was > 100 µM (inactive) and the GI50 (LOX IMVI) was > 100 µM (inactive). The GI50 (M14) was > 100 µM (inactive), the GI50 (MCF7) was > 100 µM (inactive) and the GI50 (MDA-MB-231) was > 100 µM (inactive). The GI50 (MDA-MB-435) was > 100 µM (inactive), the GI50 (MDA-N) was > 100 µM (inactive) and the GI50 (MOLT-4) was 33 µM (inactive). For the same molecule, the GI50 (Malme-3M) was > 100 µM (inactive), the GI50 (NCI-H23) was > 100 µM (inactive) and the GI50 (NCI-H460) was > 100 µM (inactive). For the same molecule, the GI50 (NCI-H522) was > 100 µM (inactive), the GI50 (NCI/ADR-RES) was > 100 µM (inactive) and the GI50 (OVCAR-3) was > 100 µM (inactive). For the same molecule, the GI50 (OVCAR-4) was > 100 µM (inactive), the GI50 (OVCAR-5) was > 100 µM (inactive) and the GI50 (OVCAR-8) was > 100 µM (inactive). The GI50 (RPMI-8226) was > 100 µM (inactive), the GI50 (SF-268) was > 100 µM (inactive) and the GI50 (SF-295) was 77.1 µM (inactive). The GI50 (SF-539) was > 100 µM (inactive), the GI50 (SK-MEL-28) was > 100 µM (inactive) and the GI50 (SK-MEL-2) was > 100 µM (inactive). For the same molecule, the GI50 (SK-OV-3) was 39.2 µM (inactive), the GI50 (SN12C) was > 100 µM (inactive) and the GI50 (SNB-19) was 61.8 µM (inactive). For the same molecule, the GI50 (SNB-75) was 33.9 µM (inactive), the GI50 (SR) was > 100 µM (inactive) and the GI50 (SW-620) was > 100 µM (inactive). For the same molecule, the GI50 (T47D) was 56.5 µM (inactive), the GI50 (TK-10) was > 100 µM (inactive) and the GI50 (U-251) was > 100 µM (inactive). For the same molecule, the GI50 (UACC-257) was > 100 µM (inactive), the GI50 (UACC-62) was > 100 µM (inactive) and the GI50 (UO-31) was > 100 µM (inactive).

`O=c1[nH]c(Nc2cccc(C(F)(F)F)c2)nc2[nH]cnc12` was tested, and the GI50 (786-0) was > 100 µM (inactive), the GI50 (A549) was > 100 µM (inactive) and the GI50 (ACHN) was > 100 µM (inactive). For the same molecule, the GI50 (CAKI-1) was > 100 µM (inactive), the GI50 (CCRF-CEM) was > 100 µM (inactive) and the GI50 (COLO 205) was 73.3 µM (inactive). For the same molecule, the GI50 (DU-145) was > 100 µM (inactive), the GI50 (EKVX) was > 100 µM (inactive) and the GI50 (HCC 2998) was > 100 µM (inactive). For the same molecule, the GI50 (HCT-116) was 80 µM (inactive), the GI50 (HCT-15) was greater than 100 µM and the GI50 (HL-60) was > 100 µM (inactive). The GI50 (HOP-62) was > 100 µM (inactive), the GI50 (HOP-92) was > 100 µM (inactive) and the GI50 (HT-29) was 77.1 µM (inactive). For the same molecule, the GI50 (Hs-578T) was 75.7 µM (inactive), the GI50 (IGROV-1) was > 100 µM (inactive) and the GI50 (K562) was > 100 µM (inactive). For the same molecule, the GI50 (KM12) was > 100 µM (inactive), the GI50 (LOX IMVI) was > 100 µM (inactive) and the GI50 (M14) was > 100 µM (inactive). For the same molecule, the GI50 (MCF7) was > 100 µM (inactive), the GI50 (MDA-MB-231) was > 100 µM (inactive) and the GI50 (MDA-MB-435) was > 100 µM (inactive). The GI50 (MDA-N) was 82.2 µM (inactive), the GI50 (MOLT-4) was > 100 µM (inactive) and the GI50 (Malme-3M) was > 100 µM (inactive). The GI50 (NCI-H226) was > 100 µM (inactive), the GI50 (NCI-H522) was 69.7 µM (inactive) and the GI50 (NCI/ADR-RES) was > 100 µM (inactive). The GI50 (OVCAR-3) was > 100 µM (inactive), the GI50 (OVCAR-4) was 94.2 µM (inactive) and the GI50 (OVCAR-5) was > 100 µM (inactive). For the same molecule, the GI50 (OVCAR-8) was > 100 µM (inactive), the GI50 (PC-3) was 75.2 µM (inactive) and the GI50 (RPMI-8226) was > 100 µM (inactive). The GI50 (RXF 393) was > 100 µM (inactive), the GI50 (SF-268) was > 100 µM (inactive) and the GI50 (SF-295) was > 100 µM (inactive). For the same molecule, the GI50 (SF-539) was > 100 µM (inactive), the GI50 (SK-MEL-28) was > 100 µM (inactive) and the GI50 (SK-MEL-2) was 88.3 µM (inactive). The GI50 (SK-MEL-5) was 40.1 µM (inactive), the GI50 (SK-OV-3) was > 100 µM (inactive) and the GI50 (SN12C) was > 100 µM (inactive). The GI50 (SNB-19) was > 100 µM (inactive), the GI50 (SNB-75) was 71.1 µM (inactive) and the GI50 (SR) was > 100 µM (inactive). The GI50 (SW-620) was > 100 µM (inactive), the GI50 (T47D) was > 100 µM (inactive) and the GI50 (TK-10) was > 100 µM (inactive). The GI50 (U-251) was > 100 µM (inactive) and the GI50 (UACC-257) was > 100 µM (inactive).

— ChEMBL document CHEMBL1201862, “PubChem BioAssay data set” (2004)
